Experimental data published in US9073935B2, “Substituted benzylspiroindolin-2-one analogs as positive allosteric modulators of the muscarinic acetylcholine receptor M1” (VANDERBILT UNIVERSITY, priority 2011, dated 2015).
Like-named read-outs stand apart in the source and are kept apart here.

Molecular target: T1, mAChR M1 (UniProt P11229)
T1 sequence (P11229 1-460): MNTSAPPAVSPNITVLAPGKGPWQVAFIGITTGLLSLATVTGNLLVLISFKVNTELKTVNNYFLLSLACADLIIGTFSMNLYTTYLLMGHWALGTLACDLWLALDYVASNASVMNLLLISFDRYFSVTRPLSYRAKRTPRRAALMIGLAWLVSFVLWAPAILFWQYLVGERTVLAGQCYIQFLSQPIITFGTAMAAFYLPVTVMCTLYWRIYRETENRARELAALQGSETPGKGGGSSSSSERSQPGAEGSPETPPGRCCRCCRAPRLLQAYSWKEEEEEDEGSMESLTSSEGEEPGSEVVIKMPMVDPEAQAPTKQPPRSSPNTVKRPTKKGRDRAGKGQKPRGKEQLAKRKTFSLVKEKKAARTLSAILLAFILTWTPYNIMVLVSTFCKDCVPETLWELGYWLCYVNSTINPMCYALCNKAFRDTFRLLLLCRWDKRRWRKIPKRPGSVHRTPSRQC
Test: mAChR M1 cell-based functional assay (calcium mobilization, potentiation of EC20 acetylcholine response)
Conditions: for EC50: CHO-K1 cells expressing mAChR M1, increase in EC20 acetylcholine response, >10 μM estimated where no plateau in the curve
Method: Chinese hamster ovary (CHO-K1) cells stably expressing rat (r)M1 were purchased from the American Type Culture Collection and cultured according to their indicated protocol. […] To make stable rM2, hM2, rM3, hM4, and rM4 cell lines for use in calcium mobilization assays, these cells also were stably transfected with a chimeric G-protein (Gqi5) (provided by B. R. Conklin, University of California, San Francisco) using Lipofectamine 2000. rM1, hM1, rM3, hM3, rM5, and hM5 cells were grown in Ham's F-12 medium containing 10% heat-inactivated fetal bovine serum (FBS), 20 mM HEPES, and 50 μg/mL G418 sulfate. rM2-Gqi5, hM2-Gqi5, and hM4-Gqi5 cells were grown in the same medium also containing 500 μg/mL Hygromycin B. Stable rM4-Gqi5 cells were grown in DMEM containing 10% heat-inactivated FBS, 20 mM HEPES, 400 μg/mL G418 sulfate, and 500 μg/mL Hygromycin B.
For high throughput measurement of agonist-evoked increases in intracellular calcium, CHO-K1 cells stably expressing muscarinic receptors were plated in growth medium lacking G418 and hygromycin at 15,000 cells/20 μL/well in Greiner 384-well black-walled, tissue culture (TC)-treated, clear-bottom plates (VWR). Cells were incubated overnight at 37° C. and 5% CO2. […] Compound master plates were formatted in an 11 point CRC format (1:3 dilutions) in 100% DMSO with a starting concentration of 10 mM using the BRAVO liquid handler (Agilent). Test compound CRCs were then transferred to daughter plates ([…]) using the Echo acoustic plate reformatter (Labcyte, Sunnyvale, Calif.) and then diluted into assay buffer (40 μL) to a 2× stock using a Thermo Fisher Combi (Thermo Fisher Scientific, Waltham, Mass.).
Calcium flux was measured using the Functional Drug Screening System (FDSS) 6000 (Hamamatsu Corporation, Tokyo, Japan) as an increase in the fluorescent static ratio. Compounds were applied to cells (20 μL, 2×) using the automated system of the FDSS 6000 at 4 s into the 300 s protocol and the data were collected at 1 Hz. […] Agonist activity was analyzed as a concentration-dependent increase in calcium mobilization upon compound addition. Positive allosteric modulator activity was analyzed as a concentration-dependent increase in the EC20 acetylcholine response. Antagonist activity was analyzed as a concentration-dependent decrease in the EC80 acetylcholine response. Concentration-response curves were generated using a four-parameter logistical equation in XLfit curve fitting software (IDBS, Bridgewater, N.J.) for Excel (Microsoft, Redmond, Wash.) or Prism (GraphPad Software, Inc., San Diego, Calif.).
The calcium mobilization assay was also used to determine “efficacy”. In the context of the assays carried out for the data in Table II, “efficacy” (% ACh at 30 μM) is defined as the maximal response in the calcium flux as determined by the sigmoidal curve fit of the concentration response curve, or in the absence of an acceptable curve fit, the response recorded at 30 μM test compound, stated as a percentage of the response elicited by a concentration of Ach that induces approximately 80% of a maximal (i.e. saturating) ACh response.
Substituted benzylspiroindolin-2-one analogs were synthesized as described above. Activity (EC50 and Emax) was determined in the mAChR M1 cell-based functional assay as described above and the data are shown in Table III. The compound number corresponds to the compound numbers used in Tables I and II.

Row | Emax (% ACh maximum at 30 μM) [%] | EC50 [µM] | Emax [%] | SMILES
1 | 76 | 3.8 |  | CN1CCC2(C1)C(=O)N(Cc1ccc(-c3cnn(C)c3)cc1F)c1ccccc12 (single isomer, unassigned) [Compound B31, 1-(2-fluoro-4-(1-methyl-1H-pyrazol-4-yl)benzyl)-1′-methylspiro[indoline-3,3′-pyrrolidin]-2-one]
2 | 28 | 3.9 |  | Cn1cc(-c2ccc(CN3C(=O)C4(CCN(C5CCCOC5)C4)c4ccccc43)c(F)c2)cn1 (single isomer, unassigned) [Compound B34]
3 | 57 | 3.9 |  | Cn1cc(-c2ccc(CN3C(=O)C4(CCN(C5CCCOC5)C4)c4ccccc43)c(F)c2)cn1 (single isomer, unassigned) [Compound B35]
4 | 38 | 5.3 |  | Cn1cc(-c2ccc(CN3C(=O)C4(CCN(C(=O)c5ccccc5)C4)c4ccccc43)c(F)c2)cn1 (single isomer, unassigned) [Compound B45]
5 | 38 | 5.8 |  | Cn1cc(-c2ccc(CN3C(=O)C4(CCN(C(=O)c5ccccc5)C4)c4ccccc43)c(F)c2)cn1 (single isomer, unassigned) [Compound B47]
6 | 39 | > 10 |  | Cn1cc(-c2ccc(CN3C(=O)C4(CCN(C5CCCCC5)C4)c4ccccc43)c(F)c2)cn1 (single isomer, unassigned) [Compound B58]
7 | 44 | > 10 |  | Cn1cc(-c2ccc(CN3C(=O)C4(CCN(C5CCCOC5)C4)c4ccccc43)c(F)c2)cn1 (single isomer, unassigned) [Compound B67]
8 | 60 | > 10 |  | Cn1cc(-c2ccc(CN3C(=O)C4(CCN(C5CCCOC5)C4)c4ccccc43)c(F)c2)cn1 (single isomer, unassigned) [Compound B68]
9 | 36 | > 10 |  | Cn1cc(-c2ccc(CN3C(=O)C4(CCN(CC5CCCCC5)C4)c4ccccc43)c(F)c2)cn1 (single isomer, unassigned) [Compound B72]
10 | <20 | > 10 |  | Cn1cc(-c2ccc(CN3C(=O)C4(CCN(CC5CCCCC5)C4)c4ccccc43)c(F)c2)cn1 (single isomer, unassigned) [Compound B73]
11 | 67 | 3 |  | Cn1cc(-c2ccc(CN3C(=O)C4(CCN(C5CCCCC5F)C4)c4ccccc43)c(F)c2)cn1 (centres unmarked) [Compound B20]
12 | 51 | 3 |  | Cn1cc(-c2ccc(CN3C(=O)C4(CCN(C5CCCCCC5)C4)c4ccccc43)c(F)c2)cn1 (centres unmarked) [Compound B21]
13 | 86 | 3.2 |  | Cn1cc(-c2ccc(CN3C(=O)C4(OCCO4)c4ccccc43)c(F)c2)cn1 [Compound B22, 1′-(2-fluoro-4-(1-methyl-1H-pyrazol-4-yl)benzyl)spiro[[1,3]dioxolane-2,3′-indolin]-2′-one]
14 |  | 3.2 | 63 | Cn1cc(-c2ccc(CN3C(=O)C4(CCN(CCF)C4)c4ccccc43)c(F)c2)cn1 (centres unmarked) [Compound B23]
15 | 65 | 3.2 |  | CCN1CCC2(C1)C(=O)N(Cc1ccc(-c3cnn(C)c3)cc1F)c1ccccc12 (centres unmarked) [Compound B24]
16 | 54 | 3.3 |  | Cn1cc(-c2ccc(CN3C(=O)C4(CCN(C5CCOC5)C4)c4ccccc43)c(F)c2)cn1 (centres unmarked) [Compound B25]

The remaining lines, values behind:

Row | SMILES | Emax (% ACh maximum at 30 μM) [%] | EC50 [µM] | Emax [%]
17 | CN1CCC2(C1)C(=O)N(Cc1ccc(-c3cnn(C)c3)cc1F)c1ccccc12 (racemic) [Compound B18, 1-(2-fluoro-4-(1-methyl-1H-pyrazol-4-yl)benzyl)-1′-methylspiro[indoline-3,3′-pyrrolidin]-2-one] | 62 | 2.9 | 
18 | Cn1cc(-c2ccc(CN3C(=O)C4(CCN(C5CCCCC5)C4)c4ccccc43)c(F)c2)cn1 (single isomer, unassigned) [Compound B2] | 73 | 1.5 | 
19 | CN1CCC2(C1)C(=O)N(Cc1ccc(-c3cnn(C)c3)cc1F)c1ccccc12 (single isomer, unassigned) [Compound B16, 1-(2-fluoro-4-(1-methyl-1H-pyrazol-4-yl)benzyl)-1′-methylspiro[indoline-3,3′-pyrrolidin]-2-one] | 46 | 2.7 | 
20 | Cn1cc(-c2ccc(CN3C(=O)C4(CCN(C5CCCC5)C4)c4ccccc43)cc2)cn1 (centres unmarked) [Compound B1] | 43 | 1.3 | 
21 | Cn1cc(-c2ccc(CN3C(=O)C4(CCN(C5CCCC5)C4)c4ccccc43)c(F)c2)cn1 (centres unmarked) [Compound B3, 1′-cyclopentyl-1-(2-fluoro-4-(1-methyl-1H-pyrazol-4-yl)benzyl)spiro[indoline-3,3′-pyrrolidin]-2-one] | 61 | 1.6 | 
22 | Cn1cc(-c2cc(F)c(CN3C(=O)C4(CCN(C5CCCC5)C4)c4ccccc43)c(F)c2)cn1 (centres unmarked) [Compound B4] | 72 | 1.7 | 
23 | Cn1cc(-c2ccc(CN3C(=O)C4(CCN(C5CCCCC5)C4)c4ccccc43)c(F)c2)cn1 (centres unmarked) [Compound B5] | 66 | 1.8 | 
24 | Cn1cc(-c2ccc(CN3C(=O)C4(CCN(c5ncccn5)C4)c4ccccc43)c(F)c2)cn1 (centres unmarked) [Compound B7, 1-(2-fluoro-4-(1-methyl-1H-pyrazol-4-yl)benzyl)-1′-(pyrimidin-2-yl)spiro[indoline-3,3′-pyrrolidin]-2-one] | 63 | 1.9 | 
25 | Cn1cc(-c2ccc(CN3C(=O)C4(CCN(C5CCCC5)C4)c4ccccc43)cc2F)cn1 (centres unmarked) [Compound B8] | 36 | 2 | 
26 | Cn1cc(-c2ccc(CN3C(=O)C4(CCN(C5CCCCC5F)CC4)c4ccccc43)c(F)c2)cn1 (centres unmarked) [Compound B9] | 32 | 2.3 | 
27 | Cn1cc(-c2ccc(CN3C(=O)C4(CCN(C5CCOCC5)C4)c4ccccc43)c(F)c2)cn1 (centres unmarked) [Compound B10] | 61 | 2.4 | 
28 | Cn1cc(-c2ccc(CN3C(=O)C4(CCN(CC5CC5)C4)c4ccccc43)c(F)c2)cn1 (centres unmarked) [Compound B11] | 60 | 2.4 | 
29 | Cn1cc(-c2ccc(CN3C(=O)C4(CCN(C5CCCC5)C4)c4ccccc43)c(F)c2F)cn1 (centres unmarked) [Compound B12] | 52 | 2.4 | 
30 | Cn1cc(-c2cc(F)c(CN3C(=O)C4(CCN(C5CCCC5)C4)c4ccccc43)cc2F)cn1 (centres unmarked) [Compound B13] | 62 | 2.4 | 
31 | Cn1cc(-c2ccc(CN3C(=O)C4(CCN(C5CCC5)C4)c4ccccc43)c(F)c2)cn1 (centres unmarked) [Compound B14] | 58 | 2.6 | 
32 | Cn1cc(-c2ccc(CN3C(=O)C4(CCN(C5CCSCC5)C4)c4ccccc43)c(F)c2)cn1 (centres unmarked) [Compound B15] | 58 | 2.7 | 
33 | CCn1cc(-c2ccc(CN3C(=O)C4(CCN(C5CCCC5)C4)c4ccccc43)c(F)c2)cn1 (centres unmarked) [Compound B17] | 45 | 2.8 | 
34 | Cn1cc(-c2ccc(CN3C(=O)C4(CCN(C5CCCOC5)C4)c4ccccc43)c(F)c2)cn1 (centres unmarked) [Compound B19] | 62 | 2.9 | 
